Measured values taken from patent publication US12559529B2, “NPY2 receptor agonists” (Boehringer Ingelheim International GmbH, priority 2019, dated 2026).

Target: T1, Human Neuropeptide Y2 Receptor (Homo sapiens, UniProt P49146)
T1 construct: purchased CHEMICON HTS066M
T1 sequence (P49146 1-381): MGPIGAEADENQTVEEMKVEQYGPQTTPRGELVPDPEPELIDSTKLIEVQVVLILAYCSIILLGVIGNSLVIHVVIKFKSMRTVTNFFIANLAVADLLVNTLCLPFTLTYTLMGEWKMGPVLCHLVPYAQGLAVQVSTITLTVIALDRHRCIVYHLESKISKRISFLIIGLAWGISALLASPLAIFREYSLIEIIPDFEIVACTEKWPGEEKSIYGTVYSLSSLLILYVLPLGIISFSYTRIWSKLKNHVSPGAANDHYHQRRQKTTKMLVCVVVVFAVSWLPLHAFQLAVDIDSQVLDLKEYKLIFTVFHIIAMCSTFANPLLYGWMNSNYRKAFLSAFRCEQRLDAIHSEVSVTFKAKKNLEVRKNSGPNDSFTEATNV
Experiment: Radioligand binding competition assay (RLB)
Settings: Table 3; human 125I-PYY (1-36) 0.02 nM, Y2 receptor membranes; read-out: Ki
How it was run: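 Filtration format; Y2R membrane prep 0.5 μg/well; buffer 50 mM HEPES/5 mM MgCl2/1 mM CaCl2/0.2% ovalbumin pH 7.4; 2 h RT, shaking. Harvest on PEI-soaked GF/C, ice-cold HEPES/500 mM NaCl washes, scintillation count. IC50 by nonlinear fit.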

SMILES: CC(C)CC(=O)N[C@@H](C)C(=O)N1CCC[C@H]1C(=O)N[C@@H](CCC(=O)O)C(=O)N[C@@H](CCCCNC(=O)COCCOCCNC(=O)COCCOCCNC(=O)CC[C@H](NC(=O)CCCCCCCCCCCCCCCCC(=O)O)C(=O)O)C(=O)N1CCC[C@H]1C(=O)N[C@@H](CCC(=O)O)C(=O)N[C@@H](CCC(=O)O)C(=O)N[C@@H](CCC(=O)O)C(=O)N[C@@H](C)C(=O)N[C@@H](CO)C(=O)N1CCC[C@H]1C(=O)N[C@@H](CCC(=O)O)C(=O)N[C@@H](CCC(=O)O)C(=O)N[C@H](C(=O)N[C@@H](CCC(N)=O)C(=O)N[C@@H](CCCNC(=N)N)C(=O)N[C@@H](Cc1ccc(O)cc1)C(=O)N[C@@H](Cc1ccc(O)cc1)C(=O)N[C@H](C(=O)N[C@@H](CO)C(=O)N[C@@H](CC(C)C)C(=O)N[C@@H](CCCNC(=N)N)C(=O)N[C@@H](Cc1c[nH]cn1)C(=O)N[C@@H](Cc1ccc(O)cc1)C(=O)N[C@@H](Cc1ccc(O)cc1)C(=O)N[C@@H](CC(N)=O)C(=O)N[C@@H](Cc1c[nH]c2ccccc12)C(=O)N[C@@H](CC(C)C)C(=O)N[C@H](C(=O)N[C@@H](CCCNC(=N)N)C(=O)N[C@@H](CCC(N)=O)C(=O)N[C@@H](CCCNC(=N)N)C(=O)N[C@@H](Cc1ccc(O)cc1)C(N)=O)[C@@H](C)O)C(C)C)[C@@H](C)O [Compound 80, N{alpha-4}-(3-methylbutanoyl)-N{epsilon-7}-[2-(2-{2-[2-(2-{2-[(4S)-4-carboxy-4-(17-carboxyheptadecanamido)butanamido]ethoxy}ethoxy)acetamido]ethoxy}ethoxy)acetamido]-[4A,7K,9E,11E,17T,18Q,22V,28Y,30W,31L]hPYY (4-36)]
- Ki: 6.96 nM

SMILES: CC(C)CC(=O)N[C@@H](C)C(=O)N1CCC[C@H]1C(=O)N[C@@H](CCC(=O)O)C(=O)N[C@@H](CCCCNC(=O)COCCOCCNC(=O)COCCOCCNC(=O)CC[C@H](NC(=O)CCCCCCCCCCCCCCCCC(=O)O)C(=O)O)C(=O)N1CCC[C@H]1C(=O)N[C@@H](CCC(=O)O)C(=O)N[C@@H](CCC(=O)O)C(=O)N[C@@H](CC(=O)O)C(=O)N[C@@H](C)C(=O)N[C@@H](CO)C(=O)N1CCC[C@H]1C(=O)N[C@@H](CCC(=O)O)C(=O)N[C@@H](CCC(=O)O)C(=O)N[C@@H](CC(C)C)C(=O)N[C@@H](CCC(N)=O)C(=O)N[C@@H](CCCNC(=N)N)C(=O)N[C@@H](Cc1ccc(O)cc1)C(=O)N[C@@H](C)C(=O)N[C@H](C(=O)N[C@@H](CO)C(=O)N[C@@H](CC(C)C)C(=O)N[C@@H](CCCNC(=N)N)C(=O)N[C@@H](Cc1c[nH]cn1)C(=O)N[C@@H](Cc1ccc(O)cc1)C(=O)N[C@@H](Cc1ccc(O)cc1)C(=O)N[C@@H](CC(N)=O)C(=O)N[C@@H](Cc1c[nH]c2ccccc12)C(=O)N[C@@H](CC(C)C)C(=O)N[C@H](C(=O)N[C@@H](CCCNC(=N)N)C(=O)N[C@@H](CCC(N)=O)C(=O)N[C@@H](CCCNC(=N)N)C(=O)N[C@@H](Cc1ccc(O)cc1)C(N)=O)[C@@H](C)O)C(C)C [Compound 85, N{alpha-4}-(3-methylbutanoyl)-N{epsilon-7}-[2-(2-{2-[2-(2-{2-[(4S)-4-carboxy-4-(17-carboxyheptadecanamido)butanamido]ethoxy}ethoxy)acetamido]ethoxy}ethoxy)acetamido]-[4A,7K,9E,18Q,21A,22V,28Y,30W,31L]hPYY (4-36)]
- Ki: 1.56 nM
